Measurements reported in publication PMC9297976 (Journal of Applied Toxicology, 2021).

Key:
[1] = target: T1, medaka Esr1 (mEsr1) (Oryzias latipes, UniProt P50241); experiment: Medaka Esr1 reporter gene assay, antagonist assay; format: cell-based, Japanese medaka (Oryzias latipes); conditions: E2 spiked at 1.0 nM (B); MAC = 1.0 × 10^−5 M
T1 sequence (P50241 1-620): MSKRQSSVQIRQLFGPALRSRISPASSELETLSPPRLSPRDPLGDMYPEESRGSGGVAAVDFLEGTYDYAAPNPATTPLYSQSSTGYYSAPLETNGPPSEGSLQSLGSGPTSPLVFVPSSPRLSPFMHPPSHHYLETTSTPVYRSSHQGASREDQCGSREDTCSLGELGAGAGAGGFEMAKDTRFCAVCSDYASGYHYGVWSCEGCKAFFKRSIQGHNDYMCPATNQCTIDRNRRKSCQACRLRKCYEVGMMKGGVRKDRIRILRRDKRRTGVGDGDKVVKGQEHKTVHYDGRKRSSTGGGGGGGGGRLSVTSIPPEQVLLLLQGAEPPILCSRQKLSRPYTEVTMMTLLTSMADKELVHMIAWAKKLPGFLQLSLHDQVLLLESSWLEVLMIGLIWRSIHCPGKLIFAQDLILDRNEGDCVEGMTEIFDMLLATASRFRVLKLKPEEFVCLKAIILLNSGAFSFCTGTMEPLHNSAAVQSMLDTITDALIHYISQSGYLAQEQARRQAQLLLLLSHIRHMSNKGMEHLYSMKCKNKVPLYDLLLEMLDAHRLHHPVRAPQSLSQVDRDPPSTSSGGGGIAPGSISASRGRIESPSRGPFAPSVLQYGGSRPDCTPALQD

[2] = test system: Japanese medaka (Oryzias latipes); experiment: Fish Short‐Term Reproduction Assay; format: in vivo; conditions: for GSI Female / GSI Male / HSI Female / HSI Male / Length Female / Length Male / Weight Female / Weight Male: completion of exposure
[3] = target: T2, medaka ARβ (mArβ) (Oryzias latipes, UniProt D1MV73); experiment: Medaka ARβ reporter gene assay, antagonist assay; format: cell-based, Japanese medaka (Oryzias latipes); conditions: 11‐KT spiked at 50 nM (D); MAC = 1.0 × 10^−5 M
T2 sequence (D1MV73 1-744): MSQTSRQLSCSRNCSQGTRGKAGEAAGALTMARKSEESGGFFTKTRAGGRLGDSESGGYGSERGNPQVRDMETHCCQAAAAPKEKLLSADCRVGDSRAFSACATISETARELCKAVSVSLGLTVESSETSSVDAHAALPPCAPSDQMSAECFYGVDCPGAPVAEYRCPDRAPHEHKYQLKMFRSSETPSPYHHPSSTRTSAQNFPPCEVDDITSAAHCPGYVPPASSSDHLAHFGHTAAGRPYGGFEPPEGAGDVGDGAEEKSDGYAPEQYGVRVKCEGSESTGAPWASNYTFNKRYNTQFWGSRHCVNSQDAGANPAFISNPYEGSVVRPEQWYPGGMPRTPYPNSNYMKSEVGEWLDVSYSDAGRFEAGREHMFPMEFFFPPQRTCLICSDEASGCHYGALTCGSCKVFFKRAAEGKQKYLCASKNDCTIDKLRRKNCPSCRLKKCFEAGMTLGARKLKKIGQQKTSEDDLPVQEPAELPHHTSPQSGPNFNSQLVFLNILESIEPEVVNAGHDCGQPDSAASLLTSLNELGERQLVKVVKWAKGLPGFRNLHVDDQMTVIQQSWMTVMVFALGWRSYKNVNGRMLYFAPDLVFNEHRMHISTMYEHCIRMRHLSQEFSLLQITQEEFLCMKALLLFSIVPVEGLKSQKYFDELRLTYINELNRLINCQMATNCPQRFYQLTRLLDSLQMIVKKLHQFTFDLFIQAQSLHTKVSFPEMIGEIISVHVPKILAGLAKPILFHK

[4] = target: T2, medaka ARβ (mArβ); experiment: Medaka ARβ reporter gene assay, agonist assay; format: cell-based, Japanese medaka (Oryzias latipes); conditions: MAC = 1.0 × 10^−5 M
[5] = target: T1, medaka Esr1 (mEsr1); experiment: cell-based; set-up: species or system Japanese medaka (Oryzias latipes)
[6] = 18.8 μg/L measured, 21 d, sig. ↑ vs control
[7] = 51.8 μg/L measured, 21 d, sig. ↑ vs control
[8] = 51.8 μg/L measured, 21 d, sig. ↓ vs control
[9] = 170 μg/L measured, 21 d, sig. ↑ vs control
[10] = measured concentration 5.63 μg/L
[11] = measured concentration 18.8 μg/L
[12] = measured concentration 51.8 μg/L
[13] = measured concentration 170 μg/L

4‐Nonylphenol (branched) [Chemical 4NP]
Antagonistic activity [1]: NE (MAC = 1.0 × 10^−5 M)^(B)
Fertility rate ([2]; 5.63 μg/L measured, 21 d): 97 ± 2.2%
Hepatic VTG, female ([2]; 5.63 μg/L measured, 21 d): 866 ± 277 ng/mg‐liver
Mortality ([2]; 5.63 μg/L measured, 21 d): 0.0%
Mortality, number of dead fish ([2]; 5.63 μg/L measured, 21 d): 0
Number of fertilized eggs (per female per day) ([2]; 5.63 μg/L measured, 21 d): 20 ± 1.2
Number of total eggs (per female per day) ([2]; 5.63 μg/L measured, 21 d): 21 ± 0.9
SSC female (joint plates with papillary processes) ([2]; 5.63 μg/L measured, 21 d): 0 ± 0
SSC male (joint plates with papillary processes) ([2]; 5.63 μg/L measured, 21 d): 92 ± 15
Hepatic VTG, male ([2]; 5.63 μg/L measured, 21 d, sig. ↑ vs control): 32 ± 31 ng/mg‐liver
Fertility rate ([2]; 18.8 μg/L measured, 21 d): 94 ± 7.7%
Mortality ([2]; 18.8 μg/L measured, 21 d): 0.0%
Mortality, number of dead fish ([2]; 18.8 μg/L measured, 21 d): 0
Number of fertilized eggs (per female per day) ([2]; 18.8 μg/L measured, 21 d): 17 ± 5.4
Number of total eggs (per female per day) ([2]; 18.8 μg/L measured, 21 d): 18 ± 4.9
SSC female (joint plates with papillary processes) ([2]; 18.8 μg/L measured, 21 d): 0 ± 0
SSC male (joint plates with papillary processes) ([2]; 18.8 μg/L measured, 21 d): 79 ± 21
Hepatic VTG, female [2, 6]: 1,153 ± 300 ng/mg‐liver
Hepatic VTG, male [2, 6]: 375 ± 320 ng/mg‐liver
Mortality ([2]; 51.8 μg/L measured, 21 d): 0.0%
Mortality, number of dead fish ([2]; 51.8 μg/L measured, 21 d): 0
SSC female (joint plates with papillary processes) ([2]; 51.8 μg/L measured, 21 d): 0 ± 0
SSC male (joint plates with papillary processes) ([2]; 51.8 μg/L measured, 21 d): 97 ± 13
Hepatic VTG, female [2, 7]: 1,348 ± 258 ng/mg‐liver
Hepatic VTG, male [2, 7]: 2,431 ± 1,455 ng/mg‐liver
Fertility rate [2, 8]: 61 ± 10%
Number of total eggs (per female per day) [2, 8]: 13 ± 3.0
Mortality ([2]; 170 μg/L measured, 21 d): 4.2%
Mortality, number of dead fish ([2]; 170 μg/L measured, 21 d): 1
SSC female (joint plates with papillary processes) ([2]; 170 μg/L measured, 21 d): 0 ± 0
SSC male (joint plates with papillary processes) ([2]; 170 μg/L measured, 21 d): 87 ± 12
Hepatic VTG, female [2, 9]: 1,212 ± 506 ng/mg‐liver
Hepatic VTG, male [2, 9]: 5,009 ± 1830 ng/mg‐liver
Fertility rate ([2]; 170 μg/L measured, 21 d, sig. ↓ vs control): 33 ± 9.7%
Change of hepatic VTG levels in females (in words) ([2]; 21 d): significant increase
Fecundity, number of total eggs (in words) ([2]; 21 d): statistically significant decrease
LOEC, elevated hepatic VTG in males ([2]; 21 d): 5.63 µg/L
LOECmVTG ([2]; LOEC on VTG induction in males): 5.63 µg/L
LOECREPRO ([2]; LOEC on reproduction (fecundity and/or fertility)): 51.8 µg/L
LOECTOX ([2]; lowest observed effect concentration on mortality): ND (>170) μg/L
GSI Female [2, 10]: 7.8 ± 1.6%
GSI Male [2, 10]: 1.02 ± 0.07%
HSI Female [2, 10]: 3.4 ± 0.55%
HSI Male [2, 10]: 1.7 ± 0.10%
Length Female [2, 10]: 36.7 ± 1.3 mm
Length Male [2, 10]: 36.8 ± 1.3 mm
Weight Female [2, 10]: 535 ± 82 mg
Weight Male [2, 10]: 515 ± 45 mg
GSI Female [2, 11]: 8.9 ± 0.6%
GSI Male [2, 11]: 1.08 ± 0.06%
HSI Female [2, 11]: 4.1 ± 0.59%
HSI Male [2, 11]: 1.7 ± 0.28%
Length Female [2, 11]: 35.5 ± 1.2 mm
Length Male [2, 11]: 37.5 ± 0.6 mm
Weight Female [2, 11]: 500 ± 46 mg
Weight Male [2, 11]: 552 ± 34 mg
GSI Female [2, 12]: 7.7 ± 0.6%
GSI Male [2, 12]: 1.15 ± 0.20%
HSI Female [2, 12]: 4.2 ± 0.66%
HSI Male [2, 12]: 2.0 ± 0.22%
Length Female [2, 12]: 36.4 ± 0.8 mm
Length Male [2, 12]: 37.6 ± 1.2 mm
Weight Female [2, 12]: 537 ± 45 mg
Weight Male [2, 12]: 552 ± 69 mg
GSI Female [2, 13]: 7.9 ± 1.5%
GSI Male [2, 13]: 1.05 ± 0.15%
HSI Female [2, 13]: 3.9 ± 0.58%
HSI Male [2, 13]: 2.4 ± 0.10%
Length Female [2, 13]: 36.0 ± 1.6 mm
Length Male [2, 13]: 38.6 ± 1.5 mm
Weight Female [2, 13]: 540 ± 64 mg
Weight Male [2, 13]: 602 ± 64 mg
Antagonistic activity [3]: NE (MAC = 1.0 × 10^−5 M)^(D)
Agonistic activity [4]: NE (MAC = 1.0 × 10^−5 M)
In vitro positive: Esr ([5]; mode of action in which EC50 or PC10 was obtained in RGA): Esr
EC50 ([5]; read-out: Agonistic activity EC50, HEK293 cells): 22 nM
